Test results as given in US11098007B2, “Crystal of amino acid salt of 3-hydroxyisovaleric acid and production method thereof” (KYOWA HAKKO BIO CO., LTD., priority 2016, dated 2021).
Read-outs that look alike come from different tables or passages of the source.

Legend:
surgically stressed rats [1] = test: Effect on body electrolyte: urinary electrolyte after continuous administration in glucose-electrolytes infusion solution (SOLITA-T No. 3)
Experimental: (§1) The solution was continuously administered to surgically stressed rats underwent intestinal tract scratch operation at a normal dose (240 mL/kg/day) for 3 days. On the final day of administration, urine was collected by 24-hour urine collection and measured for the urinary electrolyte concentration.

surgically stressed rats [2] = settings: rat, in vivo
Experimental: as §1

[3] = HMB final concentration 0.42 weight/volume % in SOLITA-T No. 3, 240 mL/kg/day for 3 days, 24-hour urine of the final day

Row | SMILES | Urinary calcium excretion amount (surgically stressed rats [1]; [3]) | Urinary phosphate excretion amount (surgically stressed rats [1]; [3]) | Electrolyte abnormality (urinary calcium, urinary phosphate) in combined administration with SOLITA-T No. 3 infusion solution (surgically stressed rats [1]; in words) | Electrolyte abnormality (urinary calcium, urinary phosphate) in combined administration with SOLITA-T No. 3 infusion solution (surgically stressed rats [2])
1 | CC(C)(O)CC(=O)O.N=C(N)NCCCC(N)C(=O)O (stereo not shown) [Arginine salt nonhydrate of HMB, arginine salt nonhydrate of HMB] | 0.24 mg/day | 19.1 mg/day | does not induce the above electrolyte abnormality | –
2 | CC(C)(O)CC(=O)[O-].CC(C)(O)CC(=O)[O-].[Ca+2] [Calcium salt hydrate of HMB, calcium salt hydrate of HMB] | – | – | – | induces the increase in urinary calcium and the decrease in urinary phosphate excretion
